Measured values as given in patent US8765748B2, “Indazolyl, benzimidazolyl, benzotriazolyl substituted indolinone derivatives as kinase inhibitors useful in the treatment of cancer” (University Health Network, priority 2007, dated 2014).
Like-named read-outs stand apart in the source and are kept apart here.

Columns and labels:
[1] = system: MCF-7 luminal breast cancer cell line; experiment: Cell growth inhibition, Sulforhodamine B assay (SRB); assay type: cell-based; conditions: Homo sapiens
Description: (§1) Breast cancer cells (MCF-7, MDA-MB-468, HCC1954), colon cancer cells (SW620) and lung cancer cells (A549), together with human mammary epithelial primary cells (HMEC), were seeded (1000 to 4000 per 80 μl per well depending on the cell growth rate) into 96 well plates, 24 hours before compound overlay. Compounds were prepared as 10 mM stock solutions in 100% DMSO which were diluted with DMEM (Dulbecco's Modified Eagle's Medium) cell growth Medium (Invitrogen, Burlington, ON, Canada) containing 10% FBS (Fetal Bovine Serum) to concentrations ranging from 50 nM to 250 μM. Aliquots (20 μl) from each concentration were overlaid to 80 μl of the pre-seeded cells in the 96 well plates to make final concentrations of 10 nM to 50 μM. The cells were cultured for 5 days before the Sulforhodamine B assay (SRB) was performed to determine the compound's cell growth inhibition activity.
(§2) Sulforhodamine B (purchased from Sigma, Oakville, ON, Canada) is a water-soluble dye that binds to the basic amino acids of the cellular proteins. Thus, colorimetric measurement of the bound dye provides an estimate of the total protein mass that is related to the cell number. the cells are fixed in situ by gently aspirating off the culture media and adding 50 μl ice cold 10% Tri-chloroacetic Acid (TCA) per well and incubate at 4° C. for 30-60 min, The plates are washed with water five times and allowed to air dry for 5 min. Addition of 50 μl 0.4% (w/v) SRB solution in 1% (v/v) acetic acid to each well and incubatation for 30 min at RT completes the staining reaction. Following staining, plates are washed four times with 1% acetic acid to remove unbound dye and then allowed to air dry for 5 min. The stain is solubilized with 100 μl of 10 mM Tris pH10.5 per well. Absorbance is read at 570 nm.
(§3) The percentage (%) of relative growth inhibition was calculated by comparing to DMSO treated only cells (100%). GI50's were determined for compounds with cytotoxic activity. The GI50 was calculated using GraphPad PRISM software (GraphPad Software, Inc., San Diego, Calif., USA).

[2] = system: MDA-MB-468 basal breast cancer cell line; experiment: as above; assay type: cell-based; conditions: Homo sapiens
Description: as §1, §2, §3

[3] = system: T47 D breast cancer cell line; experiment: Cell growth inhibition, SRB assay, extended panel; assay type: cell-based; conditions: Homo sapiens, T47D; read-out: GI50 on T47D Breast cancer cell line
Description: as §1, §2, §3
In addition to the cell lines tested as described above, selected compounds have been assayed against an extended panel. […] The sulforhodamine B assay (SRB) described above was use to assay test compounds against the extended panel (Table 9).

PLK1 = target: T1, PLK1 (Homo sapiens, UniProt P53350); experiment: PLK1 Inhibition Assay (Z-Lyte); assay type: biochemical; conditions: for IC50: 25 μM ATP, 8 nM PLK1, read-out: PLK1 IC50 Ranges; for inhibition at 10 µM: 10 μM compound, read-out: PLK1 relative inhibition percentage at a dose of 10 μM
T1 construct: purchased Invitrogen PV3501
T1 sequence (P53350 whole entry): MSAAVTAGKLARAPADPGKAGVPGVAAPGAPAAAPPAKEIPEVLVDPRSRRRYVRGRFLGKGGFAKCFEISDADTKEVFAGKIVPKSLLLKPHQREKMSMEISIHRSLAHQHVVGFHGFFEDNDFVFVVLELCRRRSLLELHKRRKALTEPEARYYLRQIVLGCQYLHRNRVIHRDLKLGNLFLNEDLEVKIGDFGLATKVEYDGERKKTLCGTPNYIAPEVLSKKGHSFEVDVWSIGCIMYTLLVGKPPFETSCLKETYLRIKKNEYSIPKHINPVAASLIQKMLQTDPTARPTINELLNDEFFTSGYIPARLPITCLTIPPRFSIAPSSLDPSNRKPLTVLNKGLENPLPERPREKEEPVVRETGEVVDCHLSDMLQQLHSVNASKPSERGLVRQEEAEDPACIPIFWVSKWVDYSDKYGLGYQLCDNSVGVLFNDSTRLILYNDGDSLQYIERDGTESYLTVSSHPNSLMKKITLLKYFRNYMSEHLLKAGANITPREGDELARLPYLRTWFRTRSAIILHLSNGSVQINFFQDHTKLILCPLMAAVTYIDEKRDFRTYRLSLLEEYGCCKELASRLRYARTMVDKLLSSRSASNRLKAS
Description: PLK1 inhibition was determined using the Z-Lyte assay kit from Invitrogen (cat #PV3802). […] The % inhibition values were determined according to the manufacturer's directions and IC50 values were obtained using a non-linear 4 point logistic curve fit (XLfit4, IDBS)

human PLK4 = target: T2, human PLK4 (Homo sapiens, UniProt O00444); experiment: PLK4 Inhibition Assay (indirect ELISA); assay type: biochemical; conditions: 15 μM ATP, 4 nM GST-PLK4; read-out: PLK4 IC50 Ranges
T2 construct: amino terminal GST fusion of residues 1-391 of human PLK4; made in house; host or cells: E. coli
T2 sequence (O00444 1-391): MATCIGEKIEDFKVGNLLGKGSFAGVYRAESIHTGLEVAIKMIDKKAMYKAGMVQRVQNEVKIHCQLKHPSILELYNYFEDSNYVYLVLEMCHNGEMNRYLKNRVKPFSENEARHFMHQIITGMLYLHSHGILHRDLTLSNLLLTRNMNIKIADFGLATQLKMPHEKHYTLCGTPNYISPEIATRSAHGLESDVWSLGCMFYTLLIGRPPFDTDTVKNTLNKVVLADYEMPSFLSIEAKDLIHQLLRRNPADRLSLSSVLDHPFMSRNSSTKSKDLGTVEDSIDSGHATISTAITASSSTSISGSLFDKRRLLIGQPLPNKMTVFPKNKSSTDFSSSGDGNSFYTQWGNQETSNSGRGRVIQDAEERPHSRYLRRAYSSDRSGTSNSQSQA
Outline: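 IC50 values, from 4-point logistic fitting, reflect remaining activity measured by indirect ELISA. Enzyme was GST-PLK4 treated with lambda phosphatase and given a 15-minute pre-incubation with compound before ATP start.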

PLK3 = target: T3, PLK3 (Homo sapiens, UniProt Q9H4B4); experiment: PLK3 Inhibition Assay (Z-Lyte); assay type: biochemical; conditions: 100 μM ATP, 21 nM PLK3
T3 construct: purchased Invitrogen PV3812
T3 sequence (Q9H4B4 whole entry): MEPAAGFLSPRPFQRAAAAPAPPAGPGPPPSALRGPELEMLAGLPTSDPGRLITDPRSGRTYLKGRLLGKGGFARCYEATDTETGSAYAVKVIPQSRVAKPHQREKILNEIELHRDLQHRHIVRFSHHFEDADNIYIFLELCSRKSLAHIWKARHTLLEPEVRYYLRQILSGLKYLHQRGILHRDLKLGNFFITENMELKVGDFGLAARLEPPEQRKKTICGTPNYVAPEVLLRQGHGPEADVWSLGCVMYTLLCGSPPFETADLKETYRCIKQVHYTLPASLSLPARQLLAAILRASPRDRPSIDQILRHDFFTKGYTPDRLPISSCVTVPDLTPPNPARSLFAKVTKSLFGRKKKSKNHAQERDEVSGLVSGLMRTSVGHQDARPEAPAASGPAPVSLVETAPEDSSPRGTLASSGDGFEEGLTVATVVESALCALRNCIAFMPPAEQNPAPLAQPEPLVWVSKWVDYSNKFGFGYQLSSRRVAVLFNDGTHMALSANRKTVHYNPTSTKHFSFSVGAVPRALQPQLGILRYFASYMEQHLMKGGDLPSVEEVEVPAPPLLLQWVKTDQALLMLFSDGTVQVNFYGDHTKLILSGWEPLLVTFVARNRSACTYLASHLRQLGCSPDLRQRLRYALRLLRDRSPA
Description: (§4) PLK3 inhibition was determined using the Z-Lyte assay kit from Invitrogen (cat #PV3802). The assay was performed using the recommended manufacturer's instructions with 100 μM ATP and 21 nM PLK3 (Invitrogen cat #PV3812). The % inhibition values were determined according to the manufacturer's directions and IC50 values were obtained using a non-linear 4 point logistic curve fit (XLfit4, IDBS).

PLK2 = target: T4, PLK2 (Homo sapiens, UniProt Q9NYY3); experiment: PLK2 Inhibition Assay (Z-Lyte); assay type: biochemical; conditions: for inhibition at 10 µM: 10 μM compound, read-out: PLK2 relative inhibition percentage at a dose of 10 μM
T4 construct: purchased Invitrogen PV4204
T4 sequence (Q9NYY3 whole entry): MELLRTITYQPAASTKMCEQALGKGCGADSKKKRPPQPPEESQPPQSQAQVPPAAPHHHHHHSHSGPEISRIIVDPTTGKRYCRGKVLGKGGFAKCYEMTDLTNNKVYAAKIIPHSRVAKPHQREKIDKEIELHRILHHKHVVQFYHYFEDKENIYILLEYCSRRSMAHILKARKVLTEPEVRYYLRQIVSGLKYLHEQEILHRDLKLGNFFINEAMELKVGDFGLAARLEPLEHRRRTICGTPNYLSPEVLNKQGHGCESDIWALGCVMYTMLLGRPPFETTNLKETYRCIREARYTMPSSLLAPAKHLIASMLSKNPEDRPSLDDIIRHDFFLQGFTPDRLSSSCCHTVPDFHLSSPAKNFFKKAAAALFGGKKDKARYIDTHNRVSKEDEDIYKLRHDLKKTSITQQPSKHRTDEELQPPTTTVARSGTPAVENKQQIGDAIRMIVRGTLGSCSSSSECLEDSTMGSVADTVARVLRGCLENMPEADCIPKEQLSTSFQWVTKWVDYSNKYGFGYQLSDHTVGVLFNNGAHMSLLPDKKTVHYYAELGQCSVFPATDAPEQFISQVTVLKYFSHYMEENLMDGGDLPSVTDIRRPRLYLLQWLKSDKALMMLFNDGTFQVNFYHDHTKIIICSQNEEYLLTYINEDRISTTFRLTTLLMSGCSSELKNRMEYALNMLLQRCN
Description: as §4, with “PLK2” for “PLK3”, “60” for “100”, “133” for “21”, “#PV4204).” for “#PV3812).”, “IDBS)” for “IDBS).”

Aurora A = target: T5, Aurora A (Homo sapiens, UniProt O14965); experiment: Aurora A Inhibition Assay (Z-Lyte); assay type: biochemical; conditions: for IC50: 20 μM ATP, 12 nM Aurora A, read-out: Aurora A IC50 Ranges
T5 construct: purchased Invitrogen PV3612
T5 sequence (O14965 1-403): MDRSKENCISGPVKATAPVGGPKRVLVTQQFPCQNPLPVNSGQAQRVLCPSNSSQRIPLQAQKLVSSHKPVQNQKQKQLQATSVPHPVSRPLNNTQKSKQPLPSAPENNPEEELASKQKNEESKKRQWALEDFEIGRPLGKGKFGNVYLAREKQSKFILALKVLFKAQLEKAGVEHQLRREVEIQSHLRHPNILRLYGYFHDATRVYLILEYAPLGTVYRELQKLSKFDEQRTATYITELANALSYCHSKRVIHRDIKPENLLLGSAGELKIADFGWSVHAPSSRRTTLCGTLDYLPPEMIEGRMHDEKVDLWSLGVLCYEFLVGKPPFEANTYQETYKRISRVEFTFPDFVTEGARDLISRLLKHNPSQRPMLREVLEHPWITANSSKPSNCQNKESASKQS
Description: as §4, with “Aurora A” for “PLK3”, “Invitrogen.” for “Invitrogen (cat #PV3802).”, “20” for “100”, “12” for “21”, “#PV3612).” for “#PV3812).”, “IDBS)” for “IDBS).”

Aurora B = target: T6, Aurora B (Homo sapiens, UniProt Q96GD4); experiment: Aurora B Inhibition Assay (Z-Lyte); assay type: biochemical; conditions: for IC50: 128 μM ATP, 28 nM Aurora B, read-out: Aurora B IC50 Ranges
T6 construct: purchased Invitrogen PV3970
T6 sequence (Q96GD4 whole entry): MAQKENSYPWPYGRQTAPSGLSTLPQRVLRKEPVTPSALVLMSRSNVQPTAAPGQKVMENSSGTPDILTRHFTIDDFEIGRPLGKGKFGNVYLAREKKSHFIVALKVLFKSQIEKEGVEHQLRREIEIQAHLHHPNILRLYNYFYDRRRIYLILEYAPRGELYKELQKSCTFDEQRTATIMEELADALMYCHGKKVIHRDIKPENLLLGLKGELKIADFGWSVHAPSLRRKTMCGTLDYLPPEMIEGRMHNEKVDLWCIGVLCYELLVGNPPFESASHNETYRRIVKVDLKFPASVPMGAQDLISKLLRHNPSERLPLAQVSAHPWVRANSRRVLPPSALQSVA
Description: as §4, with “Aurora B” for “PLK3”, “Invitrogen.” for “Invitrogen (cat #PV3802).”, “128” for “100”, “28” for “21”, “#PV3970).” for “#PV3812).”, “IDBS)” for “IDBS).”

[4] = system: human mammary epithelial primary cells (HMEC); experiment: Cell growth inhibition, Sulforhodamine B assay (SRB); assay type: cell-based; conditions: 120 h, 5 days culture, read-out: Cell Line GI50 Range, HMEC
Description: as §1, §2, §3

[5] = system: HCC1954 basal breast cancer cell line; experiment: as above; assay type: cell-based; conditions: Homo sapiens, HCC1954, 120 h, 5 days culture, read-out: Cell Line GI50 Range, HCC-1954
Description: as §1, §2, §3

SW620 colon cancer cells = experiment: as above; assay type: cell-based; conditions: Homo sapiens, SW-620, 120 h, 5 days culture, read-out: Cell Line GI50 Range, SW-620
Description: as §1, §2, §3

A549 lung cancer cells = experiment: as above; assay type: cell-based; conditions: Homo sapiens, A549, 120 h, 5 days culture, read-out: Cell Line GI50 Range, A-549
Description: as §1, §2, §3

[6] = MCF7, read-out: GI50 on MCF-7 Breast cancer cell line
[7] = MDA-MB-468, read-out: GI50 on MDA-MB-468 Breast cancer cell line
[8] = MCF7, 120 h, 5 days culture, SRB, read-out: Cell Line GI50 Range, MCF-7
[9] = MDA-MB-468, 120 h, 5 days culture, SRB, read-out: Cell Line GI50 Range, MDA-MB-468

Structure (SMILES)	GI50 [1, 6] [µM]	GI50 [2, 7] [µM]	GI50 [3] [µM]	IC50 (PLK1) [µM]	IC50 (human PLK4) [µM]	IC50 (PLK3) [µM]	inhibition at 10 µM (PLK2) [%]	IC50 (Aurora A) [µM]	GI50 [1, 8] [µM]	GI50 [2, 9] [µM]	IC50 (Aurora B) [µM]	IC50 (PLK2; 60 μM ATP, 133 nM PLK2, read-out: PLK2 IC50 Ranges) [µM]	inhibition at 10 µM (Aurora B; 10 μM compound, read-out: Aurora B relative inhibition percentage at a dose of 10 μM) [%]	GI50 [4] [µM]	GI50 [5] [µM]	GI50 (SW620 colon cancer cells) [µM]	inhibition at 10 µM (PLK1) [%]	inhibition at 10 µM (Aurora A; 10 μM compound, read-out: Aurora A relative inhibition percentage at a dose of 10 μM) [%]	GI50 (A549 lung cancer cells) [µM]
CNS(=O)(=O)c1ccc2c(c1)C(=Cc1ccc3cn[nH]c3c1)C(=O)N2 (mixture of isomers) [Example A9, (E and Z)-3-((1H-indazol-6-yl)methylene)-N-methyl-2-oxoindoline-5-sulfonamide]	> 50	> 50	> 50	< 5	< 5														
Nc1ccc2c(c1)/C(=C\c1ccc3[nH]nnc3c1)C(=O)N2 [Example A2, (E)-3-((1H-benzo[d][1,2,3]triazol-5-yl)methylene)-5-aminoindolin-2-one]				5 to 50	< 5	> 0.5	< 50	< 5	> 50	5 to 20	< 5								
O=C1Nc2ccccc2/C1=C\c1ccc2[nH]ncc2c1 [Example A6, (E)-3-((1H-indazol-5-yl)methylene)indolin-2-one]				5 to 50	< 5	> 0.5		< 5	5 to 20	5 to 20	< 5	< 5							
CNS(=O)(=O)c1ccc2c(c1)C(=Cc1ccc3[nH]nnc3c1)C(=O)N2 [Example A7, 3-((1H-benzo[d][1,2,3]triazol-5-yl)methylene)-N-methyl-2-oxoindoline-5-sulfonamide]	> 50	> 50	> 50	5 to 50	< 5														
CC(C)NC(=O)Nc1ccc2c(c1)/C(=C\c1ccc3cn[nH]c3c1)C(=O)N2 [Example A26, (E)-1-(3-((1H-indazol-6-yl)methylene)-2-oxoindolin-5-yl)-3-isopropylurea]				5 to 50	< 5	> 0.5	< 50	< 5					< 50						
O=C(O)/C=C/c1n[nH]c2cc(/C=C3/C(=O)Nc4ccccc43)ccc12 [Example A70, (E)-3-(6-((E)-(2-oxoindolin-3-ylidene)methyl)-1H-indazol-3-yl)acrylic acid]	> 50	> 50	> 50		< 5														
O=C1Nc2ccccc2/C1=C\c1ccc2c(-c3cccs3)n[nH]c2c1 [Example A91, (E)-3-((3-(thiophen-2-yl)-1H-indazol-6-yl)methylene)indolin-2-one]					< 5		< 50	5 to 50	< 5	< 5	< 5			5 to 20	< 5	< 5	< 50		
Cc1ncsc1/C=C/c1n[nH]c2cc(/C=C3/C(=O)Nc4ccccc43)ccc12 [Example A103, (E)-3-((3-((E)-2-(4-methylthiazol-5-yl)vinyl)-1H-indazol-6-yl)methyl-ene)indolin-2-one]							< 50		< 5	< 5				> 50	5 to 20	< 5	< 50	> 50	5 to 20
CCOC(=O)/C=C/c1n[nH]c2cc(/C=C3/C(=O)Nc4ccc(OC)cc43)ccc12 [Example A111, (E)-ethyl 3-(6-((E)-(5-methoxy-2-oxoindolin-3-ylidene)methyl)-1H-indazol-3-yl)acrylate]	> 50	> 50	> 50		< 5		< 50	< 5									< 50		
CC(C)c1ccc2c(c1)/C(=C\c1ccc3c(/C=C/c4ccncc4)n[nH]c3c1)C(=O)N2 [Example A127, (E)-5-isopropyl-3-((3-((E)-2-(pyridin-4-yl)vinyl)-1H-indazol-6-yl)methylene)indolin-2-one 2,2,2-trifluoroacetate]					< 5	> 0.5		< 5	< 5	< 5	< 5				< 5	< 5			5 to 20
